{
  "source": "patent US8940798B2",
  "about": "“Compounds useful for treating and/or preventing disease-associated bone loss” (Centre National de al Recherche Scientifique (CNRS), priority 2011, dated 2015)",
  "key": {"osteoclasts (OCs)": {"test_system": "osteoclasts (OCs)", "assay": "Bone resorption assay, CTx concentration in medium of OCs on bovine bone slices", "type": "cell-based, mouse", "from_the_text": "FIGS. 5A-5H: Inhibition of bone resorption by an inhibitor of Rac1 activation by Dock5. (FIG. 5A) Principle of the yeast exchange assay used to identify inhibitors of Dock5 exchange activity. Wild type Rac1 is fused to LexA DNA binding domain (LexA) and its effector Kinectin (Kin) to GAL4 activation domain (GAD). Expression of Dock5-DHR2 activates Rac1, which binds to kinectin, leading to the expression of his3 and then yeast […] for histidine. Inhibitors of Dock5-DHR2 revert Rac1 activation. (FIG. 5B) Growth curves of yeasts expressing Rac1 and Kinectin with (open triangles) and without (dots) Dock5-DHR2, in medium complemented (plain lines) or not (dotted lines) with histidine. (FIG. 5C) Structure of N-(3,5-dichlorophenyl)benzensulfonamide (C21). (FIG. 5D) Western blots showing total and GTPbound Rac1 (upper panels) and GFP and GFP-fused Dock5-DHR2 in extracts of 293T cells treated for 1 hour with the indicated concentrations of C21 in the presence of 1% DMSO. […] (FIG. 5F) Number of OCs (OC) after a 24-hour incubation with the indicated concentrations of C21, expressed as a % of DMSO control (0 μM C21). […] Well image was reconstituted and resorbed areas were measured using MetaMorph 7.0 software (Molecular Devices). […] After 2 days, CTx concentrations were measured using Crosslap (IDS Nordic Bioscience). […]"}, "Dock5-DHR2": {"target": "T1, Dock5-DHR2 (Mus musculus, UniProt B2RY04)", "T1 construct": "Dock5 DHR2 domain (aminoacids E1119 to L1667) was cloned into pEGFP (Clontech) or myc tagged in pRs426Met (21); expressed in transfected cells; host or cells: HEK-293T cells", "T1 sequence (B2RY04 1119-1667)": "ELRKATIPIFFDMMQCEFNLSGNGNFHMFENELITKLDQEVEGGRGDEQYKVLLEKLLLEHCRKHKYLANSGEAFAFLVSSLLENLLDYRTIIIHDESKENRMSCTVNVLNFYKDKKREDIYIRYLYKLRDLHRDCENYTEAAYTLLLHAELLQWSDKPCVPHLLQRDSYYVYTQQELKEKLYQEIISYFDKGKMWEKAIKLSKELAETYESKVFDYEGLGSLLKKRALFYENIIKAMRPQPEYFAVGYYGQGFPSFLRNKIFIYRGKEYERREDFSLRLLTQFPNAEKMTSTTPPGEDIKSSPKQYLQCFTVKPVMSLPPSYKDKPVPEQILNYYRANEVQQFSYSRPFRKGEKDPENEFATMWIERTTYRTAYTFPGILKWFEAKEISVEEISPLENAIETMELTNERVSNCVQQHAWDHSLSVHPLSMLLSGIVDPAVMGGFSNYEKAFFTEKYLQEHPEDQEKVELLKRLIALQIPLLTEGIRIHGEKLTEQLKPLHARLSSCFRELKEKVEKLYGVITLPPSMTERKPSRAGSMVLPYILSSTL", "assay": "Active (GTP-bound) Rac1 pull-down in 293T cells expressing GFP-fused Dock5-DHR2", "type": "cell-based", "conditions": "HEK293T cells, treated for 1 hour, 1% DMSO, western blot", "from_the_text": "FIGS. 5A-5H: Inhibition of bone resorption by an inhibitor of Rac1 activation by Dock5. (FIG. 5A) Principle of the yeast exchange assay used to identify inhibitors of Dock5 exchange activity. Wild type Rac1 is fused to LexA DNA binding domain (LexA) and its effector Kinectin (Kin) to GAL4 activation domain (GAD). Expression of Dock5-DHR2 activates Rac1, which binds to kinectin, leading to the expression of his3 and then yeast […] for histidine. Inhibitors of Dock5-DHR2 revert Rac1 activation. (FIG. 5B) Growth curves of yeasts expressing Rac1 and Kinectin with (open triangles) and without (dots) Dock5-DHR2, in medium complemented (plain lines) or not (dotted lines) with histidine. (FIG. 5C) Structure of N-(3,5-dichlorophenyl)benzensulfonamide (C21). […] (FIG. 5F) Number of OCs (OC) after a 24-hour incubation with the indicated concentrations of C21, expressed as a % of DMSO control (0 μM C21). […] To activate Rac1, OCs at day 4 of differentiation were starved overnight in the presence of 2% serum, stimulated with 100 ng/ml M-CSF or lifted and replated onto vitronectin-coated plates for 30 minutes prior to lysis, and active Rac1 levels were measured G-LISA kit according to manufacturer's instructions (Cytoskeleton)."}},
  "data": [
    {"compound": "O=S(=O)(Nc1cc(Cl)cc(Cl)c1)c1ccccc1", "note": "[C21, N-(3,5-dichlorophenyl)benzenesulfonamide]", "values": [
      {"measurement": "Bone resorption, CTx concentration in the culture medium of OCs", "setting": "osteoclasts (OCs); 25 μM C21, OCs on bone", "result": "efficiently inhibits"},
      {"measurement": "Bone resorption by OCs in vitro, CTx production per OC, dose response", "setting": "osteoclasts (OCs); dose response experiment", "result": "efficiently inhibits bone resorption"},
      {"measurement": "Activation of Rac1 by Dock5-DHR2", "setting": "Dock5-DHR2", "result": "efficiently inhibits"}
    ]}
  ]
}
